From article PMC4523242 (Antiviral Research, 2014)
Like-named read-outs stand apart in the source and are kept apart here.

How the values were obtained:
[1] = tested on: DENV2 replicon; assay: DENV2 Rluc reporter replicon inhibition assay in BHK-21/DENV2 cells; assay type: cell-based, Dengue virus type 2; details: for % replicon inhibition (Means ± SEM) DENV2: 50 μM, 24 h, BHK-21/DENV2 replicon cells; for EC50: Dengue virus
[2] = tested on: WNV replicon; assay: WNV Rluc reporter replicon inhibition assay in Vero/WNV cells; assay type: cell-based, West Nile virus; details: 24 h; for EC50: read-out: WNV replicon EC50; for % replicon inhibition (Means ± SEM) WNV: 50 μM
[3] = tested on: DENV2; assay: DENV2 infectivity in BHK-21 cells, plaque assay of supernatants; assay type: cell-based, Dengue virus type 2
[4] = tested on: DENV2; assay: Direct plaque assay; assay type: cell-based, Dengue virus type 2; details: MOI of 0.01
[5] = tested on: DENV2; assay: qRT-PCR of intracellular and extracellular DENV2 RNA in infected BHK-21 cells; assay type: cell-based, Dengue virus type 2; details: 5 μM, MOI of 1, 72 h
[6] = target: T1, DENV2 NS2B-NS3 protease (Dengue virus type 2, UniProt P14340); assay type: biochemical
T1 sequence (P14340 1476-1653 limits assumed): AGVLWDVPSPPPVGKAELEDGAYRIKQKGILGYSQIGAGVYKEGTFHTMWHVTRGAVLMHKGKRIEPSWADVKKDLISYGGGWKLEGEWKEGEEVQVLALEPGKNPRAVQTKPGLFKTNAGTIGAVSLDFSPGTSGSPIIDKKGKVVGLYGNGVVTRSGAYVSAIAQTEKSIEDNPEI
T1 sequence (P14340 1398-1437 limits assumed): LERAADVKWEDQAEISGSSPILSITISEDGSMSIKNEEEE

[7] = target: DENV2 5'-RNA methyltransferase (NS5FL) (Dengue virus type 2, UniProt P14340); assay type: biochemical
[8] = target: DENV2 NS5 RdRP (Dengue virus type 2, UniProt P14340); assay: RNA-dependent RNA polymerase assay; assay type: biochemical
[9] = target: Renilla luciferase (Rluc) (Renilla reniformis, UniProt P27652); assay type: biochemical
[10] = Cytotoxicity; details: African green monkey, naïve Vero cells
[11] = Viability of replicon expressing cells; details: hamster, BHK-21 cells expressing DENV2 replicon
[12] = tested on: Vero cells; assay: Cytotoxicity; details: read-out: WNV replicon CC50; Vero cells, 24 h
[13] = tested on: BHK-21 cells; assay: Cytotoxicity; details: read-out: DENV2 replicon CC50, 24 h
[14] = DENV2, BHK-21, 24 h, read-out: DENV2 replicon EC50
[15] = Vero/WNV replicon cells, Rluc, initial screening

Sequence of Renilla luciferase (Rluc) (P27652 whole entry, looked up): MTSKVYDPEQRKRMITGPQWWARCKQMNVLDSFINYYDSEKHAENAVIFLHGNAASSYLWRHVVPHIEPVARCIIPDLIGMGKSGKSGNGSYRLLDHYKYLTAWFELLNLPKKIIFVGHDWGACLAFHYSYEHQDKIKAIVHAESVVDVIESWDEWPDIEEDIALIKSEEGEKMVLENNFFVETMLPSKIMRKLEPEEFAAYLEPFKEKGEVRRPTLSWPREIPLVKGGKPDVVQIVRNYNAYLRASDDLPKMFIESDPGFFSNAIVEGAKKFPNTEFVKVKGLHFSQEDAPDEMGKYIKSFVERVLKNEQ

Row | Compound | EC50 [1, 14] | EC50 ([2]; West Nile virus, Vero) | CC50 at 24 h [10] | % replicon inhibition (Means ± SEM) DENV2 [1] | % replicon inhibition (Means ± SEM) WNV ([2]; Vero/WNV replicon cells) | EC50 [2, 15] | CC50 [12] | CC50 [13] | also measured
1 | CCN(CC)Cc1cc(Nc2ccnc3cc(Cl)ccc23)ccc1O [Compound 1, 4-[(7-chloroquinolin-4-yl)amino]-2(diethylaminomethyl)phenol] | 10.8 ± 1.43 µM | 14.6 ± 2.21 µM | 24.4 ± 2.49 µM | – | – | – | – | – | % replicon inhibition (Means ± SEM) DENV2 ([1]; listed as AQ): 76.31 ± 1.60%; EC50 ([1]; DENV2, BHK-21, 48 h, read-out: EC50 DENV2 replicon replication): 7.41 ± 1.09 µM; inhibition at 50 µM ([2]; West Nile virus, Vero, read-out: % replicon inhibition (Means ± SEM) WNV, 50 μM, 24 h, Vero/WNV replicon cells): 96.3 ± 0.39%; plaque reduction, time of addition assay ([3]; 5 μM added as late as 15 h post-infection, MOI of 1, supernatants at 72 h): ≥ 90%; effect when added late, time of addition assay ([3]; 5 μM added at 21 h post-infection and later, MOI of 1): lost its inhibitory effect; reduction of plaque titer from DMSO control, order of addition assay ([3]; 5 μM added post-infection, MOI of 1, 48 and 72 h post-infection): ≥ 90%; plaque formation reduced (time course) ([3]; 5 μM, MOI of 0.01, up to 96 h): ≥ 90%; stability of AQ in infected cell culture ([3]; concluded from time course of inhibition, 37 °C, post-infection): at least 96 h; effect on DENV2 adsorption ([4]; 5 μM during adsorption only): does not inhibit DENV2 adsorption; virus titer reduction, direct plaque assay ([4]; 10 μM during adsorption only): 69.23 ± 1.57%; virus titer reduction, direct plaque assay ([4]; 25 μM during adsorption only): 82.70 ± 2.48%; intracellular and extracellular DENV2 RNA levels (qRT-PCR) [5]: effectively inhibited DENV2 replication; effect on DENV2 protease [6]: no effect; inhibition of formation of type I cap by NS5FL [7]: did not inhibit; Inhibition of RdRP activity, positive-strand RNA synthesis ([8]; 50 μM, 60 min): 10.58 ± 0.94%; inhibition at 50 µM ([8]; read-out: Inhibition of RdRP activity, negative-strand synthesis): -17.1 ± 4.37%; interference with Rluc enzyme activity [9]: did not interfere; CC50 at 48 h [11]: 52.1 ± 4.25 µM
2 | Cl.ClCCN(CCCl)c1ccc(CCNc2ccnc3cc(Cl)ccc23)cc1 [Compound 4, Chloroquine ethyl phenyl mustard] | – | – | – | > 99% | > 99% | 1.55 ± 0.4 µM | 5.02 ± 1.23 µM | 74.1 ± 21.5 µM | –
3 | CC(CCCN(CCCl)CCCl)Nc1ccnc2cc(Cl)ccc12 (stereo not drawn) [Compound 5, Chloroquine mustard] | 2.9 ± 0.78 µM | 2.95 ± 0.77 µM | 3.64 ± 0.93 µM | > 99% | > 99% | – | – | – | –
4 | Quinacrine mustard [Compound 9] | – | – | – | > 99% | > 99% | 0.36 ± 0.09 µM | 0.97 ± 0.11 µM | 2.4 ± 0.63 µM | –
